Assay results: EP3231799A1, “4-(AZETIDIN-1-YL)PYRIMIDINE DERIVATIVES WITH ANTI-MITOTIC AND ANTI-PROLIFERATIVE ACTIVITY” (Universität Basel, priority 2016, dated 2017)
Where two headings read alike, the source gives them in different places.

System: A2058 melanoma cells
Assay: Mitotic arrest (microtubule binding) in A2058 melanoma cells, high-content microscopy
Type: cell-based
Settings: Homo sapiens, inhibitors 1 - 0.008 µM for 24 hours, mean value of at least four experiments
Experimental: Microtubule binding of compounds of formula (I) was determined in A2058 melanoma cells measuring mitotic arrest in high-throughput, high-content microscopic approaches. Microtubule networks or their depolymerization were visualized in parallel. Cellular tests are beneficial to address the biological question of tubulin binding, but also indirectly measure the uptake of a compound by cells. A hallmark of microtubule modifying agents (stabilizing or de-stabilizing) is a mitotic arrest cell cycle arrest of dividing cells, which was measured using the following protocol: • Cell preparation: 5000 A2058 cells were seeded in 100 µl complete DMEM into 96-well plates (Cell Carrier, Perkin Elmer) the day before inhibitor treatment. Cells were exposed to inhibitors (ranging from 1 - 0.008 µM) for 24 hours and fixed by addition of half a volume 10% PFA in PBS (30 min., RT). Cells were permeabilized and stained with Hoechst33324 by addition of 1:10 volume of 1%BSA/1% Triton X-100, 10 µM Hoechst33324 in PBS (30 min., RT), followed by a first image acquisition. Subsequently cells were additionally stained with rabbit anti pSer^10 Histone H3 (Cell Signaling Technologies) and rat anti-α-tubulin (Santa Cruz Technologies, overnight, 4 °C, shaking). Cells were washed and incubated with Alexa 488 conjugated goat anti rat IgG, Alexa 647 conjugated goat anti rabbit IgG antibodies (Life Technologies) and 1 µM Hoechst33324 in 1% BSA/0.1% Triton X-100/1x PBS (shaking; RT; dark), followed by 3 wash cycles and a 2nd round of imaging. • Image acquisition: Fluorescent microscopy images were acquired on an Operetta high content analysis system (Perkin Elmer). 35 fields of view/well were acquired as wide field images (20xWD objective). 1st acquisition: Nuclear DNA content and DNA morphology was imaged using the DAPI filter set. 2nd acquisition: Nuclear DNA, phosphorylated Histone H3 and α-tubulin images were acquired using DAPI, Alexa488 and Alexa647 filter sets. • Image analysis: Images were batch analysed using Columbus software (PerkinElmer). Analyses were run including single cell analysis mode. The total number of nuclei was determined in the DAPI channel. Nuclear DNA was classified into "normal" or "condensed" using a linear classifier mode. The percentage of cells with condensed DNA was calculated for each well (% condensed = (# condensed/ # total) *100). The fraction of cells with pSer10 Histone H3 positive nuclei was determined using Hoechst33342 and Alexa647 signals. 1st the nuclei were identified using DNA staining (Hoechst33342; excluding nuclei at image borders). 2nd the identified nuclei were classified positive or negative for pSer10 Histone H3 by two filters using the "filter by properties" mode based on Alexa 647 intensities. Alexa 647 filter properties were i) mean intensities above threshold /nucleus and ii) a maximum intensity above threshold. Calculation: % Alexa 647^positive = (# Alexa 647^positive / # selected nuclei) *100.
The percentage of cells with condensed DNA and the percentage of pSer10 Histone H3 positive nuclei were blotted as function of inhibitor concentration (log scale) using GraphPad Prism. Half maximal effective concentrations (EC50) of inhibitors were determined using GraphPad's "non-linear regression with variable slope" formula (Y=Bottom + (Top-Bottom)/(1+10^((LogEC50-X)*HillSlope))). Table 1: Effect of selected formula (I) compounds on mitotic arrest in A2058 cells. Half-maximal effective concentrations are given as mean value of at least four experiments for the indicated cellular phenotypes.

[1] = percentage of cells with condensed DNA, read-out: Half-maximal effective concentrations (EC50), Condensed DNA
[2] = percentage of pSer10 Histone H3 positive nuclei, read-out: Half-maximal effective concentrations (EC50), pSer10 Histone H3

Structure (SMILES)	EC50 [1] [nM]	EC50 [2] [nM]
Nc1cc(C(F)(F)F)c(-c2cc(N3CCC3)nc(N3CCOCC3)n2)cn1 [Compound 1, 5-(6-(azetidin-1-yl)-2-morpholinopyrimidin-4-yl)-4-(trifluoromethyl)pyridin-2-amine]	79	80
Nc1cc(C(F)(F)F)c(-c2cc(N3CC(F)C3)nc(N3CCOCC3)n2)cn1 [Compound 2, 5-(6-(3-fluoroazetidin-1-yl)-2-morpholinopyrimidin-4-yl)-4-(trifluoromethyl)pyridin-2-amine]	71	151
CC1CN(c2cc(-c3cnc(N)cc3C(F)(F)F)nc(N3CCOCC3)n2)C1 [Compound 3, 5-(6-(3-methylazetidin-1-yl)-2-morpholinopyrimidin-4-yl)-4-(trifluoromethyl)pyridin-2-amine]	92	
Nc1ncc(-c2cc(N3CC(F)(F)C3)nc(N3CCOCC3)n2)c(C(F)(F)F)n1 [Compound 8, 6-(3,3-difluoroazetidin-1-yl)-2-morpholino-4'-(trifluoromethyl)-[4,5'-bipyrimidin]-2'-amine]	70	73

More lines, now with the values ahead:

EC50 [1] [nM]	EC50 [2] [nM]	Structure (SMILES)
65	79	Nc1cc(C(F)(F)F)c(-c2cc(N3CC(F)(F)C3)nc(N3CCOCC3)n2)cn1 [Compound 4, 5-(6-(3,3-difluoroazetidin-1-yl)-2-morpholinopyrimidin-4-yl)-4-(trifluoromethyl)pyridin-2-amine]
111	115	C[C@@H]1COCCN1c1nc(-c2cnc(N)cc2C(F)(F)F)cc(N2CC(F)(F)C2)n1 [Compound 16, (R)-5-(6-(3,3-difluoroazetidin-1-yl)-2-(3-methylmorpholino)pyrimidin-4-yl)-4-(trifluoromethyl)pyridin-2-amine]
128	135	Nc1cc(C(F)(F)F)c(-c2cc(N3CC(F)(F)C3)nc(N3CCC(O)CC3)n2)cn1 [Compound 40, 1-(4-(6-amino-4-(trifluoromethyl)pyridin-3-yl)-6-(3,3-difluoroazetidin-1-yl)pyrimidin-2-yl)piperidin-4-ol]
129	127	Nc1cc(C(F)(F)F)c(-c2cc(N3CC(F)(F)C3)nc(N3CCC(=O)CC3)n2)cn1 [Compound 76, 1-(4-(6-amino-4-(trifluoromethyl)pyridin-3-yl)-6-(3,3-difluoroazetidin-1-yl)pyrimidin-2-yl)piperidin-4-one]
